One compound from patent US20130066264A1, “SUGAR-RESPONSIVE GEL AND MEDICINE ADMINISTERING DEVICE” (NATIONAL INSTITUTE FOR MATERIALS SCIENCE, priority 2010, published 2013) can be followed below.

For this data set the following is noted: acid-base titration, FIG. 2. From the text: Next, for the sample 1, the comparative sample 1 and the comparative sample 2, the relationships between glucose concentrations and apparent changes in pKa were derived by acid-base titration in the conditions of various glucose concentrations (0 g/L, 1 g/L, 3 g/L, 5 g/L and g/L).

As for `C=CC(=O)NCCNC(=O)c1ccc(B(O)O)cc1F` [sample 1, 4-(2-acrylamideethylcarbamoyl)-3-fluorophenylboronic acid], the “apparent pKa” value (glucose 0 g/L, 1 g/L, 3 g/L, 5 g/L and g/L (samples a1 to a5)) was < 7.4. In addition, the “degree of decrease in pKa according to the increase in concentration of glucose, versus comparative samples 1 and 2” value (various glucose concentrations) is listed as “remarkably superior”.
